Results taken from article PMC12881674, “Activation of TRPV3 channels in bladder cancer cells stimulates ATP release” (Molecular Pharmacology, 2025).

Biological target: T1, mouse TRPV4 (Mus musculus, UniProt Q9EPK8)
T1 construct: expressed in transfected cells; host or cells: HEK293
Experiment: fluo-4 Ca2+ assay selectivity, HEK cells expressing mouse TRPV4
Assay type: cell-based
Details: concentrations up to 50 μM
From the text: KU-19-19 (DSMZ no. ACC 395), CAL-29 (DSMZ no. ACC 515), 647-V (DSMZ no. ACC 414), RT-4 (DSMZ no. ACC 412), and RT-112 (DSMZ no. ACC 418) bladder cancer cell lines were obtained from the Leibniz Institute DSMZ (German Collection of Microorganisms and Cell Cultures). Human TRPV3 (NM_145068, purchased from OriGene) and mouse TRPV3 (NM_001371006), rat TRPV1, mouse TRPV2, mouse TRPV4, human TRPM2, human TRPM8, and human TRPA1 were stably transfected in HEK293 cells as described before.[27] […]
All fluorometric Ca^2+ assays were performed in HBS buffer at room temperature. […] For the primary compound screening and the generation of concentration-response analyses, a robotic liquid handling station (Freedom Evo 150; Tecan) with a built-in custom-made fluorescence plate imager was used. […] Fluorescence was excited using a 470-nm light-emitting diode, and emitted light was imaged through a 515-nm–long pass filter with a cooled Zyla 5.5 camera (Andor). Fluorescence was recorded and processed under the control of the μ-Manager 2.0 gamma software (https://micro-manager.org.[28]). After recording baseline fluorescence, compounds were dispensed into the wells via the liquid handling device. […] For further analysis, fluorescence signals were calculated for each well, corrected for background intensities and normalized to the initial signals. […]

T1 sequence (Q9EPK8 whole entry): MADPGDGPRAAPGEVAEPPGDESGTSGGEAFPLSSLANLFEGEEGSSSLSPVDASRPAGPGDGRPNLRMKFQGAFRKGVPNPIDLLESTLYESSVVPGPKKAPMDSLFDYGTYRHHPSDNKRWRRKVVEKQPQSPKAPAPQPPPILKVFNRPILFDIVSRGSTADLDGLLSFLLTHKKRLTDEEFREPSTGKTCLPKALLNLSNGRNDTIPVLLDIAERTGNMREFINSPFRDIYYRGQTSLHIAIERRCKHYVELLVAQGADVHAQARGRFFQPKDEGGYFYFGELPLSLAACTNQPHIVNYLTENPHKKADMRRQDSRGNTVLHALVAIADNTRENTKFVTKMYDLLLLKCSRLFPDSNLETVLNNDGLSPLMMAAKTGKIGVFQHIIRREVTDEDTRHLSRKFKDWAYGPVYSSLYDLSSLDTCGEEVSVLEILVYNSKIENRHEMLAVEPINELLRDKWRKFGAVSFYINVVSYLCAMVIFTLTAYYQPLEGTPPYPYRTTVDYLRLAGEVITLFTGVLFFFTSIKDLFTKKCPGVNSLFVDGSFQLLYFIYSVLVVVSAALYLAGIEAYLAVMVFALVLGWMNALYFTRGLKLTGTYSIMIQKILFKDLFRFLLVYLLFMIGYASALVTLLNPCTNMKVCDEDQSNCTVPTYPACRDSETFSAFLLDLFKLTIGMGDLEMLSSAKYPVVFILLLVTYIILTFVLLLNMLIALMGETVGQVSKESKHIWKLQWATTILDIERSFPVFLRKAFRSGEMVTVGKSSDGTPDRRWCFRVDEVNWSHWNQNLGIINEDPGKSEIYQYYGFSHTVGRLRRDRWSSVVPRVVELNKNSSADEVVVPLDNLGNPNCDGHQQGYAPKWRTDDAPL

effect on TRPV4: no effect
SMILES: COC(=O)C12CN(Cc3ccccc3)CC1(C(=O)OC)CN(Cc1ccccc1)C2 (stereo not shown) [AV3-1]
